Experimental findings from US20140243403A1, “TREATING COLORECTAL, PANCREATIC, AND LUNG CANCER” (The General Hospital Corporation, priority 2011, published 2014) are described below.

Assay [1] has as its system TOP-FLASH reporter in PANC-1 cells. The assay is described as follows: TOP-FLASH reporter in PANC-1 PDAC cells. It is filed as cell-based. To be noted: KRAS-independent PANC-1 cells. An excerpt: (§1) (E) TOP-FLASH reporter activity in KRAS mutant PDAC cell lines following inhibition of GSK-3 kinase with increasing concentrations of the small molecule inhibitor BIO. PANC-1 are KRAS-independent cells and YAPC are KRAS-dependent cells. Luminescence counts (photons/sec) are plotted on the y-axis. Data are representative of three independent experiments+/−SEM.
(§2) (F) TOP-FLASH reporter dose-response relationships in PANC-1 and YAPC cells following combined treatment with GSK-3 and TAK1 inhibitors (BIO and 5Z-7-Oxozeaenok respectively). Luminescence counts (photons/sec) are plotted on the y-axis. Data are represented as the means of triplicates+/−SEM.
(§3) To further test the role of Wnt signaling in this context, experiments were performed using two KRAS mutant pancreatic cancer (PDAC) cell lines, PANC-1 and YAPC, which are APC wild-type. PANC-1 cells are KRAS-independent, whereas YAPC cells are KRAS-dependent, a distinction that has been linked to increased KRAS signaling in YAPC cells (Singh et al., 2009). […] In contrast, PANC-1 cells undergo stronger induction of TOP-FLASH activity with combined GSK-3 and TAK1 inhibition (FIG. 11F, […]). […] Finally, a constitutively-activated mutant of β-catenin (CTNNB1-CA) containing S33Y and S45A missense mutations was introduced into KRAS-dependent SW620 cells. This mutant caused partial losses in both KRAS and TAK1 dependencies (FIGS. 13A-C). […]

For assay [2], the system named is TOP-FLASH reporter in YAPC cells. Description: TOP-FLASH reporter in YAPC PDAC cells. To be noted: KRAS-dependent YAPC cells. It is filed as cell-based.
Excerpt: as §1, §2, §3

As for `O=C1Nc2cc(Br)ccc2/C1=C1/Nc2ccccc2/C1=N\O` [BIO], the TOP-FLASH reporter induction entry was “weak induction” in assay [1] and “strong, dose-dependent TOP-FLASH reporter induction” in assay [2].
